The structures appear in SMILES notation. Activity calls are given as the source filed them. The rule behind the calls is not given here.

In one assay the target is T1, Glutamate NMDA receptor (Rattus norvegicus) (UniProt P35439+Q00959+Q00960+Q00961+Q62645+Q8VHN2+Q9R1M7). Put plainly: The compound was tested in vivo for its effect on the NMDA receptor complex following administration by iv infusion in red nucleus assay; Inactive. It is filed as organism-based.
As to `O=c1[nH]c2cc(Cl)ccc2c(O)c(-c2cccnc2)c1=O`, the result was inactive.

For the next assay, the target named is T1, Glutamate NMDA receptor (Rattus norvegicus). Description: The compound was tested in vivo for its effect on the NMDA receptor complex following administration by iv infusion in red nucleus assay. More on the design: unit not given here. It is filed as organism-based.
With `O=c1[nH]c2cc(Cl)ccc2c(O)c(-c2ccccn2)c1=O`, the Activity was determined as 1.7.
On the same count and under the same terms, the result for `COc1ccc(-c2c(O)c(=O)[nH]c3cc(Cl)ccc3c2=O)cc1` reads 9.9; that for `O=c1[nH]c2cc(Cl)ccc2c(O)c(-c2ccco2)c1=O`, 5; that for `COc1cccnc1-c1c(O)c(=O)[nH]c2cc(Cl)ccc2c1=O`, 2.8.
Regarding `O=c1[nH]c2cc(Cl)ccc2c(O)c(-c2cccs2)c1=O`, the Activity stood at 5.6.
The compound `O=c1[nH]c2cc(Cl)ccc2c(O)c(-c2ccccc2)c1=O` came in with an Activity of 9.4.

Values taken from ChEMBL document CHEMBL1128111, “Synthesis and biological activity of a series of 4-aryl substituted benz[b]azepines: Antagonists at the strychnine-insensitive glycine site” (Bioorg Med Chem Lett, 1995).
